From ChEMBL document CHEMBL3045666, “The phytotoxicity of natural tetramic acid derivatives” (Pest Manag Sci, 2011)
In brackets after ≈: the same amount, converted by molar mass.

Assays:
[1] = Inhibition of PS2 at 50 uM
[2] = tested on: Desmodesmus subspicatus; assay: Antimicrobial activity against Scenedesmus subspicatus SAG 86.81 assessed as growth inhibition; assay type: functional
[3] = tested on: Lemna minor; assay: Herbicidal activity against Lemna minor (common duckweed) at 50 uM; assay type: functional; details: read-out: GI
[4] = Inhibition of PS2 at 100 uM
[5] = tested on: Lemna minor; assay: Herbicidal activity against Lemna minor (common duckweed) at 100 uM; assay type: functional
[6] = tested on: Synechococcus; assay: Antimicrobial activity against cyanobacteria Synechococcus PCC 6911 assessed as growth inhibition; assay type: functional
[7] = tested on: Tetradesmus obliquus; assay: Antimicrobial activity against Acutodesmus obliquus SAG 276-1 assessed as growth inhibition; assay type: functional
[8] = tested on: Avena fatua; assay: Herbicidal activity against Avena fatua assessed as growth reduction at 3 mg/ha; assay type: functional
[9] = tested on: Ipomoea hederacea; assay: Herbicidal activity against Ipomoea hederacea (ivy-leaved morning glory) assessed as growth reduction at 3 mg/ha; assay type: functional
[10] = tested on: Helianthus annuus; assay: Herbicidal activity against Helianthus annuus (sunflower) assessed as growth reduction at 3 mg/ha; assay type: functional
[11] = tested on: Setaria faberi; assay: Herbicidal activity against Setaria faberi (Giant Foxtail) assessed as growth reduction at 3 mg/ha; assay type: functional
[12] = tested on: Helianthus annuus; assay: Herbicidal activity against Helianthus annuus (sunflower) assessed as growth reduction at 1 mg/ha; assay type: functional
[13] = tested on: Avena fatua; assay: Herbicidal activity against Avena fatua assessed as growth reduction at 1 mg/ha; assay type: functional
[14] = tested on: Setaria faberi; assay: Herbicidal activity against Setaria faberi (Giant Foxtail) assessed as growth reduction at 1 mg/ha; assay type: functional
[15] = tested on: Ipomoea hederacea; assay: Herbicidal activity against Ipomoea hederacea (ivy-leaved morning glory) assessed as growth reduction at 1 mg/ha; assay type: functional

CCCCCC#CC#C/C=C/CC(C)C[C@@H]1C[C@H](C)/C(=C2/C(=O)C(C)N(C)C2=O)N1N (stereo not given in full) [FISCHERELLIN A]
inhibition [1]: 60%
MIC [2]: 0.5 µM (≈ 0.212 µg/mL)
inhibition of growth at 50 µM [3]: 44%
inhibition [4]: 98%
inhibition at 100 µM [5]: 74%
MIC [6]: 0.5 µM (≈ 0.212 µg/mL)
MIC [7]: 0.5 µM (≈ 0.212 µg/mL)

C[C@H]1CCC[C@H]2O[C@@H]2COc2ccc(cc2)C[C@H]2NC(=O)/C(=C/1O)C2=O [MACROCIDIN A]
growth inhibition (GI) [8]: 0%
growth inhibition (GI) [9]: 0%
growth inhibition (GI) [10]: 50%
growth inhibition (GI) [11]: 65%

C[C@@H]1/C(O)=C2/C(=O)N[C@H](Cc3ccc(cc3)OC[C@H]3O[C@@H]3CCC1O)C2=O (stereo not given in full) [MACROCIDIN B]
growth inhibition (GI) [12]: 50%
growth inhibition (GI) [13]: 0%
growth inhibition (GI) [14]: 20%
growth inhibition (GI) [15]: 0%
